Laboratory results taken from patent US20220242851A1, “CRYSTAL FORM AND SALT OF QUINAZOLINE COMPOUND AND PREPARATION METHOD THEREOF” (SHENZHEN JINRUI FOUNDATION BIOTECH CO., LTD, priority 2019, published 2022).

Molecular target: HER2(ErbB2) (Homo sapiens, UniProt P04626)
Assay: In vitro enzyme activity, HER2 (radiometric, Eurofins)
Format: biochemical
Conditions: conclusion
Protocol: The purpose of this assay is to detect the in vitro inhibitory activity of compounds on HER1(ErbB1), HER2(ErbB2), and HER4(ErbB4). The enzymes used in this assay are human ErbB 1, ErbB2 and ErbB4. Eurofins Pharma Discovery Service provided the method for activity detection. Steps and method of the assay (96-well plate): A buffer solution of the assay compounds in a dilution of 5-fold (5 μL), polypeptide substrate poly(Glu, Tyr) (4:1) (2.5 μL), ErbB (4-20 ng, 2.5 μL), MnCl2 (50 mM, 1.25 μL), dH2O (3.75 μL), and [γ-^33P]ATP (10 μL) were added, and incubated at 30° C. for 10 minutes. The reaction was terminated by adding 3% phosphoric acid. 10 μL of the sample was taken and transferred to Filtermate A. The filter disc was washed 3 times with 75 mM phosphoric acid and once with methanol. The filter disc was transferred to a sealed plastic bag and the scintillation mixture (4 mL) was added. The intensity of the emitted photon was detected by a scintillation luminescence counter. The CPM (times/min) of the enzyme sample was compared with the CPM of the internal control sample. The level of photon intensity reflected the degree of the tyrosine kinase activity.

HER2(ErbB2), sequence (P04626 23-1255): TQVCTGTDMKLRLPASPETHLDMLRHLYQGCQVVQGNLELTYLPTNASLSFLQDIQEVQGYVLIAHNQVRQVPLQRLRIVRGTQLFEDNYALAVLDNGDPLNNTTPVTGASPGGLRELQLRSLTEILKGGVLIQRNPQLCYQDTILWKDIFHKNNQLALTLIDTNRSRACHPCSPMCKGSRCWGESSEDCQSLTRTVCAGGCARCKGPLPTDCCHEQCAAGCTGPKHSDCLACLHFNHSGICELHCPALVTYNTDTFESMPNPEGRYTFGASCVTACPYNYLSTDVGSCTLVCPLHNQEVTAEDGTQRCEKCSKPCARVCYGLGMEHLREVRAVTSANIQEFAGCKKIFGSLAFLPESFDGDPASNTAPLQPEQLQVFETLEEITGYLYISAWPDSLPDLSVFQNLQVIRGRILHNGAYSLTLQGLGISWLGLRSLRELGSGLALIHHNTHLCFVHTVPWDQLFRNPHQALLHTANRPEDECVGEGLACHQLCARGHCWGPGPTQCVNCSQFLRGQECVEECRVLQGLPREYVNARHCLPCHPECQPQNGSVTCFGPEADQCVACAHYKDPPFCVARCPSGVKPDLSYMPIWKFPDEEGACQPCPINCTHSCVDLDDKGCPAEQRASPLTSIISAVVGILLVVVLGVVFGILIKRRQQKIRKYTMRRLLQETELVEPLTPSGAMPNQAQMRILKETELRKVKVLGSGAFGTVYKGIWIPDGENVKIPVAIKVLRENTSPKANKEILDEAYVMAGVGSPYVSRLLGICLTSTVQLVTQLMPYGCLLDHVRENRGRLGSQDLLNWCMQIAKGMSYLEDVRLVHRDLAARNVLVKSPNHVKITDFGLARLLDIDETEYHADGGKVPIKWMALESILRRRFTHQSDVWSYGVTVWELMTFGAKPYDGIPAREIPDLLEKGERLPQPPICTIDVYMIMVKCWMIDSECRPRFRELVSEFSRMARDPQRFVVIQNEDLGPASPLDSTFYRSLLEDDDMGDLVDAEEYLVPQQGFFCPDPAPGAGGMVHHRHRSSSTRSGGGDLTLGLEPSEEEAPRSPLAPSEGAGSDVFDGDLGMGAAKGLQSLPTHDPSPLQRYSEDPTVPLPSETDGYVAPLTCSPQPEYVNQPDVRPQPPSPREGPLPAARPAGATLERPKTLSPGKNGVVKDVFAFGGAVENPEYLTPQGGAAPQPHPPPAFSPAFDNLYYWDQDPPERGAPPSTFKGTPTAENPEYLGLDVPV

## C=CC(=O)N1[C@@H]2CC[C@H]1C[C@H](Nc1cc3c(Nc4ccc(Cl)c(Cl)c4F)ncnc3cc1OC)C2 [Compound of formula (I)]
  inhibitory activity on HER2 (in words): significant inhibitory activity
